Laboratory results reported in ChEMBL document CHEMBL2321764, “Synthesis and antibacterial activities of new piperidine substituted (5R)-[1,2,3]triazolylmethyl and (5R)-[(4-F-[1,2,3]triazolyl)methyl] oxazolidinones” (Bioorg Med Chem Lett, 2013).
pIC50: −log10 of the molar value. In brackets after ≈: the same amount, converted by molar mass.

Tests used:
[1] = tested on: Haemophilus influenzae; assay: Antibacterial activity against betalactamase positive Haemophilus influenzae by agar dilution method; format: functional
[2] = tested on: Streptococcus pyogenes; assay: Antibacterial activity against Streptococcus pyogenes 308A by agar dilution method; format: functional
[3] = tested on: Streptococcus agalactiae; assay: Antibacterial activity against Streptococcus agalactiae ATCC 2901 by agar dilution method; format: functional
[4] = tested on: Streptococcus pneumoniae; assay: Antibacterial activity against penicillin-resistant Streptococcus pneumoniae C402 by agar dilution method; format: functional
[5] = tested on: Enterococcus faecium; assay: Antibacterial activity against vancomycin-resistant Enterococcus faecium C803 by agar dilution method; format: functional
[6] = tested on: Enterococcus faecalis; assay: Antibacterial activity against vancomycin-resistant Enterococcus faecalis C474 by agar dilution method; format: functional
[7] = tested on: Staphylococcus; assay: Antibacterial activity against methicillin-resistant coagulase negative Staphylococcus by agar dilution method; format: functional
[8] = tested on: Staphylococcus aureus; assay: Antibacterial activity against methicillin-resistant Staphylococcus aureus C463 by agar dilution method; format: functional
[9] = target: T1, MAO-B (Homo sapiens, UniProt P27338); assay: Inhibition of human MAO-B assessed as residual activity at 10 uM; details: read-out: INH
T1 sequence (P27338 whole entry): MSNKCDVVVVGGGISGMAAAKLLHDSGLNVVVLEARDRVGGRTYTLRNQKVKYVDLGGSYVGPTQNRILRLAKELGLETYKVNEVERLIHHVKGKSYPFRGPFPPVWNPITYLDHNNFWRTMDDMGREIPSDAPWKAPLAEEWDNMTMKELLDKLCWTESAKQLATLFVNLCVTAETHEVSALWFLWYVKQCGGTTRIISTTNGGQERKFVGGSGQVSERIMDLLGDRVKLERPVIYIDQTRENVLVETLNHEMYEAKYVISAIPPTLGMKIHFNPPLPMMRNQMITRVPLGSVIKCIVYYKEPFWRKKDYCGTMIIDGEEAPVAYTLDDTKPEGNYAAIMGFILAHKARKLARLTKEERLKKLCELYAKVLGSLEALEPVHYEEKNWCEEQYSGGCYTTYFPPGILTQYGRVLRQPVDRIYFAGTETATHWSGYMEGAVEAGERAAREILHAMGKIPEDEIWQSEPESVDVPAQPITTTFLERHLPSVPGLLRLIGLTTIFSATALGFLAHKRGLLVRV

[10] = target: T2, MAO-A (Homo sapiens, UniProt P21397); assay: Inhibition of human MAO-A assessed as residual activity at 10 uM; details: read-out: INH
T2 sequence (P21397 whole entry): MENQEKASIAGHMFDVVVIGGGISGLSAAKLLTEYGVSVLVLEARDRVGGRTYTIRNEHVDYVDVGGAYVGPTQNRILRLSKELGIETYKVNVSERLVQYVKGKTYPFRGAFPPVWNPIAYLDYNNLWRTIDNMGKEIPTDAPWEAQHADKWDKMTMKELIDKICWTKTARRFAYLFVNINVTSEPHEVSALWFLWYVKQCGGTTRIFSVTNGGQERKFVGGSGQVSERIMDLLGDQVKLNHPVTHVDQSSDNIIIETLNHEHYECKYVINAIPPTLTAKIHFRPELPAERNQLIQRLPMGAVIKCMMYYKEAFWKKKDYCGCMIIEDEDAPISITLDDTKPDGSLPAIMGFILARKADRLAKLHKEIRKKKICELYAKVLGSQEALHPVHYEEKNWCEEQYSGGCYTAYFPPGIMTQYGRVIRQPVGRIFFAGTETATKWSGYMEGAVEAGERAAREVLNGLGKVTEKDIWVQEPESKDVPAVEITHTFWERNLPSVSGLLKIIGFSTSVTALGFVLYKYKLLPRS

[11] = target: CYP3A4 (Homo sapiens, UniProt P08684); assay: Inhibition of CYP3A4 (unknown origin) assessed as residual activity at 10 uM; format: ADME; details: read-out: INH
[12] = target: CYP2C9 (Homo sapiens, UniProt P11712); assay: Inhibition of CYP2C9 (unknown origin) assessed as residual activity at 10 uM; format: ADME; details: read-out: INH
[13] = target: CYP2D6 (Homo sapiens, UniProt P10635); assay: Inhibition of CYP2D6 (unknown origin) assessed as residual activity at 10 uM; format: ADME; details: read-out: INH
[14] = target: T3, CYP1A2 (Homo sapiens, UniProt P05177); assay: Inhibition of CYP1A2 (unknown origin) assessed as residual activity at 10 uM; format: ADME; details: read-out: INH
T3 sequence (P05177 whole entry): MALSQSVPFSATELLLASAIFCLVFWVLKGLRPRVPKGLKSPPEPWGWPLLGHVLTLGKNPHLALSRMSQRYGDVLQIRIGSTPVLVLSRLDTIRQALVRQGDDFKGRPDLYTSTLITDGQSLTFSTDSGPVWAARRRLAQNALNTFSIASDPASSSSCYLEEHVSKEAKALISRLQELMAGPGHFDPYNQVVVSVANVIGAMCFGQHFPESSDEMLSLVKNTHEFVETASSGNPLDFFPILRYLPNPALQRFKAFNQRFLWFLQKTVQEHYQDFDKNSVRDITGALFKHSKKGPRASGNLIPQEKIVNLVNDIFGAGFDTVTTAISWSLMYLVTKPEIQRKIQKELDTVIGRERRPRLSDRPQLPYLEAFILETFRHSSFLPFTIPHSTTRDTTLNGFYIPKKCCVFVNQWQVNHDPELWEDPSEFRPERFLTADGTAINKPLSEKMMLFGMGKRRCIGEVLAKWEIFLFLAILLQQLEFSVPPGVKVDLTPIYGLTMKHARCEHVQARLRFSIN

[15] = target: Voltage-gated inwardly rectifying potassium channel KCNH2 (Homo sapiens, UniProt Q12809); assay: Inhibition of human hERG by automated patch clamp assay
Chain of Voltage-gated inwardly rectifying potassium channel KCNH2 (Q12809 whole entry): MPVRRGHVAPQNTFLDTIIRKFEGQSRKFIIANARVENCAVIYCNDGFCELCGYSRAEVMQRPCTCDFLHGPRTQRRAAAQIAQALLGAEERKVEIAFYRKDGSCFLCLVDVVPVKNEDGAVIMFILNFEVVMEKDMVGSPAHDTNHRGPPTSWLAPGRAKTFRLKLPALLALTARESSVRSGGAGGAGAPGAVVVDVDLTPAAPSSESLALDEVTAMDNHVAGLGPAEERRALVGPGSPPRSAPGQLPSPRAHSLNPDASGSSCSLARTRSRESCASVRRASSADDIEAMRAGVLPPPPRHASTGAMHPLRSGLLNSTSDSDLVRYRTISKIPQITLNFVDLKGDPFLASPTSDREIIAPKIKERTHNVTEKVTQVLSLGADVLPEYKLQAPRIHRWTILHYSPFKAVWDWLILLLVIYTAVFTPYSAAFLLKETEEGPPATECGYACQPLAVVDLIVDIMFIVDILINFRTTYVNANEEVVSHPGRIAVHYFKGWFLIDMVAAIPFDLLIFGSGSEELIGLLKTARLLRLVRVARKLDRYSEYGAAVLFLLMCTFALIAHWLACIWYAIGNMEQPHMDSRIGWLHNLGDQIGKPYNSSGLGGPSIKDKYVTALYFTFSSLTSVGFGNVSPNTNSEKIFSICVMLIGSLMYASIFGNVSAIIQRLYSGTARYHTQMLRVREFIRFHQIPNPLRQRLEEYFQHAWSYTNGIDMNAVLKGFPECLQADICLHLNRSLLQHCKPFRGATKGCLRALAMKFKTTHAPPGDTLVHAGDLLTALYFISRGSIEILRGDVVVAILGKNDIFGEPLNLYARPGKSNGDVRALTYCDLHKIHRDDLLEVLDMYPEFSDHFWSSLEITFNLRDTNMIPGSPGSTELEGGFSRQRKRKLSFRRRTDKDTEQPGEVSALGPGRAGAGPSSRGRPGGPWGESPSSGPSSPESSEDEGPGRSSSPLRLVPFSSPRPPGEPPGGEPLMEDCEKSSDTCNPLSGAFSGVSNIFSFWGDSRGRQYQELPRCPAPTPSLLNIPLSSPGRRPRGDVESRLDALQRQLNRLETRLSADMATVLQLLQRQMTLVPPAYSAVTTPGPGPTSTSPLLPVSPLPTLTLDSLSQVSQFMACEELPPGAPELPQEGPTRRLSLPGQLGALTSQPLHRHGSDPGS

Chain of CYP2C9 (P11712 whole entry): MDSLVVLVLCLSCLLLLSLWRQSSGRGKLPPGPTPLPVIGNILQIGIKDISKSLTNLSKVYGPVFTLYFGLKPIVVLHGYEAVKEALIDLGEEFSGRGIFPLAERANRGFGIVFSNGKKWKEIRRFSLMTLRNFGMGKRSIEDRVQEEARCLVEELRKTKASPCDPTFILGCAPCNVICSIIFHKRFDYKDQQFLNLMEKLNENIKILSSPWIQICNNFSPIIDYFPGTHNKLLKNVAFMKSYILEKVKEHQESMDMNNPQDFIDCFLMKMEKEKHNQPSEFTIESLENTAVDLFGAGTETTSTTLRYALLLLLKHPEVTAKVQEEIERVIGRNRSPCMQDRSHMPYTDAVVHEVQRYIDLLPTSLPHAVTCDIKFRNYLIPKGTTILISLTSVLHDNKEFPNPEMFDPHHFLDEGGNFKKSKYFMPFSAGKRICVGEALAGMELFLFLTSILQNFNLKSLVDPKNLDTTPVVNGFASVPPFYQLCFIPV
Chain of CYP3A4 (P08684 whole entry): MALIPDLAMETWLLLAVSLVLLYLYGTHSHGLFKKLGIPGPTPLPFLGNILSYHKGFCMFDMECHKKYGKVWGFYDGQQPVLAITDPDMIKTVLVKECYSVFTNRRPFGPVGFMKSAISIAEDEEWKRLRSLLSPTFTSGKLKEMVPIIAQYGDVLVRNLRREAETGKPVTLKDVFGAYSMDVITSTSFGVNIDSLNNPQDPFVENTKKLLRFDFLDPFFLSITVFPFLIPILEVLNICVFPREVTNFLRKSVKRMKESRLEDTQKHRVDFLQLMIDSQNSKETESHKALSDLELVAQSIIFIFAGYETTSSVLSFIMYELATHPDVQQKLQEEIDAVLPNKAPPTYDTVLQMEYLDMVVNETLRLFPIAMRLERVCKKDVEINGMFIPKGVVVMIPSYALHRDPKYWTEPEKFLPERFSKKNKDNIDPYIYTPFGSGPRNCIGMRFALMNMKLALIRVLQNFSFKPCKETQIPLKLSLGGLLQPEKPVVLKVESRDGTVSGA
Chain of CYP2D6 (P10635 whole entry): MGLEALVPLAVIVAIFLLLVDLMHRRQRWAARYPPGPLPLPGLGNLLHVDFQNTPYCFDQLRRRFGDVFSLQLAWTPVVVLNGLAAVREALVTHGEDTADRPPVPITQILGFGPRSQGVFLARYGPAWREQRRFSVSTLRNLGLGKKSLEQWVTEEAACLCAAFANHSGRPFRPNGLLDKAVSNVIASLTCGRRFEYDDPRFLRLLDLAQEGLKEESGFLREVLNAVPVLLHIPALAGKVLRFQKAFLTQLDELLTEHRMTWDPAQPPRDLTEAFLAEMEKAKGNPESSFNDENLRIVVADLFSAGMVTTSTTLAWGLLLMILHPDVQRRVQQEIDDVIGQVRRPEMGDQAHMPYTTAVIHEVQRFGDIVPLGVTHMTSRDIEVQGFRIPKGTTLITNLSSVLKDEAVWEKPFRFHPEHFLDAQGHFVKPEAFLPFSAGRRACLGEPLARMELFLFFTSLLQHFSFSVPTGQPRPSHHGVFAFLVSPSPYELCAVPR

| Structure (SMILES) | MIC [1] | MIC [2] | MIC [3] | MIC [4] | MIC [5] | MIC [6] | MIC [7] | MIC [8] | activity at 10 µM [9] | activity at 10 µM [10] | activity at 10 µM [11] | activity at 10 µM [12] | activity at 10 µM [13] | activity at 10 µM [14] | pIC50 [15] |
| --- | --- | --- | --- | --- | --- | --- | --- | --- | --- | --- | --- | --- | --- | --- | --- |
| CCOC(=O)C=C1CCN(c2ccc(N3C[C@H](Cn4ccnn4)OC3=O)cc2F)CC1 | 12.5 µg/mL (≈ 29.1 µM) | 6.25 µg/mL (≈ 14.6 µM) | 12.5 µg/mL (≈ 29.1 µM) | 6.25 µg/mL (≈ 14.6 µM) | 25 µg/mL (≈ 58.2 µM) | 25 µg/mL (≈ 58.2 µM) | 25 µg/mL (≈ 58.2 µM) | 25 µg/mL (≈ 58.2 µM) |  |  |  |  |  |  |  |
| CCOC(=O)C(C)=C1CCN(c2ccc(N3C[C@H](Cn4cc(F)nn4)OC3=O)cc2F)CC1 | 100 µg/mL (≈ 217 µM) | 100 µg/mL (≈ 217 µM) | 100 µg/mL (≈ 217 µM) | 100 µg/mL (≈ 217 µM) | 100 µg/mL (≈ 217 µM) | 100 µg/mL (≈ 217 µM) | 100 µg/mL (≈ 217 µM) | 100 µg/mL (≈ 217 µM) |  |  |  |  |  |  |  |
| CC(C#N)=C1CCN(c2ccc(N3C[C@H](Cn4cc(F)nn4)OC3=O)cc2F)CC1 | 6.25 µg/mL (≈ 15.1 µM) | 6.25 µg/mL (≈ 15.1 µM) | 12.5 µg/mL (≈ 30.2 µM) | 6.25 µg/mL (≈ 15.1 µM) | 100 µg/mL (≈ 241 µM) | 100 µg/mL (≈ 241 µM) | 100 µg/mL (≈ 241 µM) | 100 µg/mL (≈ 241 µM) | 34.8% | 10.2% | 21.4% | 64.8% | 106% | 92.8% | 4.68 |
| N#CC=C1CCN(c2ccc(N3C[C@H](Cn4cc(F)nn4)OC3=O)cc2F)CC1 | 6.25 µg/mL (≈ 15.6 µM) | 50 µg/mL (≈ 125 µM) | 100 µg/mL (≈ 250 µM) | 6.25 µg/mL (≈ 15.6 µM) | 50 µg/mL (≈ 125 µM) | 50 µg/mL (≈ 125 µM) | 100 µg/mL (≈ 250 µM) | 50 µg/mL (≈ 125 µM) | 19.5% | 50.6% | 23.6% | 66.6% | 117% | 91.8% |  |
| CC(=O)NC[C@H]1CN(c2ccc(N3CCOCC3)c(F)c2)C(=O)O1 [LINEZOLID] | 0.78 µg/mL (≈ 2.31 µM) | 0.78 µg/mL (≈ 2.31 µM) | 1.56 µg/mL (≈ 4.62 µM) | 0.78 µg/mL (≈ 2.31 µM) | 1.56 µg/mL (≈ 4.62 µM) | 3.12 µg/mL (≈ 9.25 µM) | 3.12 µg/mL (≈ 9.25 µM) | 3.12 µg/mL (≈ 9.25 µM) | 31.4% | 6.79% |  |  |  |  |  |
| CCOC(=O)C(Cl)=C1CCN(c2ccc(N3C[C@H](Cn4ccnn4)OC3=O)cc2F)CC1 | 6.25 µg/mL (≈ 13.5 µM) | 6.25 µg/mL (≈ 13.5 µM) | 6.25 µg/mL (≈ 13.5 µM) | 12.5 µg/mL (≈ 26.9 µM) | 25 µg/mL (≈ 53.9 µM) | 12.5 µg/mL (≈ 26.9 µM) | 25 µg/mL (≈ 53.9 µM) | 25 µg/mL (≈ 53.9 µM) |  |  |  |  |  |  |  |
| CC(=O)NC[C@H]1CN(c2ccc(N3CCC(=CC#N)CC3)c(F)c2)C(=O)O1 | 0.78 µg/mL (≈ 2.09 µM) | 0.78 µg/mL (≈ 2.09 µM) | 0.78 µg/mL (≈ 2.09 µM) | 0.39 µg/mL (≈ 1.05 µM) | 3.12 µg/mL (≈ 8.38 µM) | 3.12 µg/mL (≈ 8.38 µM) | 3.12 µg/mL (≈ 8.38 µM) | 3.12 µg/mL (≈ 8.38 µM) |  |  |  |  |  |  |  |
| N#CCC1=CCN(c2ccc(N3C[C@H](Cn4cc(F)nn4)OC3=O)cc2F)CC1 | 12.5 µg/mL (≈ 31.2 µM) | 25 µg/mL (≈ 62.4 µM) | 25 µg/mL (≈ 62.4 µM) | 50 µg/mL (≈ 125 µM) | 100 µg/mL (≈ 250 µM) | 100 µg/mL (≈ 250 µM) | 100 µg/mL (≈ 250 µM) | 100 µg/mL (≈ 250 µM) |  |  |  |  |  |  |  |
| N#CCC1=CCN(c2ccc(N3C[C@H](Cn4ccnn4)OC3=O)cc2F)CC1 | 1.56 µg/mL (≈ 4.08 µM) | 0.39 µg/mL (≈ 1.02 µM) | 1.56 µg/mL (≈ 4.08 µM) | 0.39 µg/mL (≈ 1.02 µM) | 3.12 µg/mL (≈ 8.16 µM) | 3.12 µg/mL (≈ 8.16 µM) | 3.12 µg/mL (≈ 8.16 µM) | 3.12 µg/mL (≈ 8.16 µM) |  |  |  |  |  |  |  |
| N#CC1(O)CCN(c2ccc(N3C[C@H](Cn4ccnn4)OC3=O)cc2F)CC1 | 1.56 µg/mL (≈ 4.04 µM) | 0.78 µg/mL (≈ 2.02 µM) | 1.56 µg/mL (≈ 4.04 µM) | 0.78 µg/mL (≈ 2.02 µM) | 3.12 µg/mL (≈ 8.07 µM) | 3.12 µg/mL (≈ 8.07 µM) | 3.12 µg/mL (≈ 8.07 µM) | 3.12 µg/mL (≈ 8.07 µM) |  |  |  |  |  |  |  |
